From US9034596B1, “Method for fluorescent staining of cellular and intracellular membranes” (KUWAIT UNIVERSITY, priority 2014, dated 2015) come the findings set out here.

The subject of data set [1] is cells. The experiment in a line: harm to cells incubated with the fluorescent probe. The conditions noted are these: 20 μM, shielded from light.
The nature of data set [2]: solubility.
In data set [3] the test system is LS174T cells. The experiment in a line: fluorescent staining of cellular and intracellular membranes, confocal microscopy. Format: cell-based. As for the experimental part: Monolayer cultures were grown in RPMI 1640 medium (Gibco) supplemented with 10% fetal bovine serum (FBS) (Gibco), 1% L-glutamine (Gibco), 1% penicillin/streptomycin (Gibco) as an antibacterial agent and 0.1% amphotericin (Sigma) as an antifungal agent. The cultures were maintained at 37° C. in a CO2 incubator with humidified atmosphere, 5% CO2 and 95% air. Confluent cultures (80-90%) were used for experiments. The cells were then detached by trypsinization and incubation at 37° C. for 2-3 minutes. Fresh medium (10× to trypsin's volume) was added to inhibit trypsin action. The cell suspension was centrifuged at 500 g for three minutes. The supernatant was discarded and the pellet obtained was resuspended in fresh medium. Cells were counted and seeded onto sterile glass cover slips at 5×10^4 cells per slip and incubated overnight to adhere. ZnTnHex-4-PyPCl4 was added and the cells were incubated with the compound in the dark. The cells were then fixed with ice cold absolute ethanol added to a final concentration of 60%, and the plate containing the slips was kept on ice for 10 minutes. The cells were washed with PBS twice and the slips were transferred onto microscopic slides. Vectashield mounting medium from Vector Laboratories was used. The slides were examined using a Zeiss LSM 510 META confocal fluorescence microscope fitted with standard FITC, Rhodamine and DAPI filter sets.
LS174T cells were counted and seeded onto sterile glass cover slips at 5×10^4 cells per slip and incubated over-night to adhere. The dye was added to a final concentration of 0.5-2.5 μM and the cells were incubated with ZnTnHex-4-PyPCl4 in the dark for 15-30 minutes. The cells were then fixed with ice cold absolute ethanol added to a final concentration of 60%, and the plate containing the slips was kept on ice for 10 minutes. The cells were washed with PBS twice and the slips were transferred onto microscopic slides. […] The slides were examined using a Zeiss LSM 510 META confocal fluorescence microscope fitted with standard FITC, Rhodamine and DAPI filter sets.

Data set [4] can be described thus: storage stability of sterilized probe. To be noted: refrigerated in the dark.

Turning to `CCCCCC[n+]1ccc(C2=C3C=CC4=[N+]3[Zn]35[n]6c2ccc6C(c2cc[n+](CCCCCC)cc2)=C2C=CC(=[N+]23)C(c2cc[n+](CCCCCC)cc2)=c2ccc([n]25)=C4c2cc[n+](CCCCCC)cc2)cc1` [ZnTnHex-4-PyPCl4, Zn(II) meso-tetrakis(N-n-hexylpyridinium-4-yl)porphyrin tetrachloride], in data set [1], the harm to cells entry is listed as “without harming cells”. The solubility in water entry in data set [2] was “water soluble”. Besides, the subcellular localization entry in data set [3] (LSI74T cells, 20 μM, 24 hours pre-incubation in the dark, FIG. 2) was “mitochondria, lysosomes, the ER and the plasma membrane”. Further, the “time to stain cellular and intracellular membranes” value in data set [3] (concentrations as low as about 0.5-2.5 μM) was no more than 15 min. The “concentration needed for staining membranes” value in data set [3] (living mammalian cells) lay in the range of 0.5 to 1 µM. For the same molecule, the storage stability result in data set [4] is listed as “kept for months”.
